Test results taken from ChEMBL document CHEMBL4622868, “Design and synthesis of amphiphilic 2-hydroxybenzylphosphonium salts with antimicrobial and antitumor dual action” (Bioorg Med Chem Lett, 2020).
In brackets after ≈: the same amount, converted by molar mass. Activity calls are given as the source filed them. The calls are words filed in the database; no cut-off is given here. Non-standard residues stand in square brackets, D forms with d. Residues, ends and D or L forms follow the SMILES beside them. Orn = NCCC[C@H](N)C(=O)O

Assays:
Staphylococcus aureus [1] = assay: Antibacterial activity against clinical isolate amoxicillin and ciprofloxacin resistance Staphylococcus aureus; format: functional
Staphylococcus aureus [2] = assay: Bactericidal activity against clinical isolate amoxicillin and ciprofloxacin resistance Staphylococcus aureus; format: functional
Staphylococcus aureus [3] = assay: Antibacterial activity against clinical isolate amoxicillin resistance Staphylococcus aureus; format: functional
Staphylococcus aureus [4] = assay: Bactericidal activity against clinical isolate amoxicillin resistance Staphylococcus aureus; format: functional
Staphylococcus aureus [5] = assay: Antibacterial activity against Staphylococcus aureus ATCC 209p; format: functional
Staphylococcus aureus [6] = assay: Bactericidal activity against Staphylococcus aureus ATCC 209p; format: functional
Bacillus cereus [7] = assay: Antibacterial activity against Bacillus cereus; format: functional
Bacillus cereus [8] = assay: Bactericidal activity against Bacillus cereus; format: functional
[9] = tested on: Trichophyton mentagrophytes; assay: Antifungal activity against Trichophyton mentagrophytes; format: functional
[10] = tested on: Trichophyton mentagrophytes; assay: Fungicidal activity against Trichophyton mentagrophytes; format: functional
Candida albicans [11] = assay: Antifungal activity against Candida albicans; format: functional
Candida albicans [12] = assay: Fungicidal activity against Candida albicans; format: functional
[13] = Hemolytic activity against RBC (unknown origin) at 480 uM; format: ADME, cell-based, Erythrocyte; conditions: red blood cells (erythrocytes); read-out: Activity
[14] = Hemolytic activity against RBC (unknown origin) at 240 uM; format: ADME, cell-based, Erythrocyte; conditions: red blood cells (erythrocytes); read-out: Activity
[15] = Hemolytic activity against RBC (unknown origin) at 120 uM; format: ADME, cell-based, Erythrocyte; conditions: red blood cells (erythrocytes); read-out: Activity
[16] = Hemolytic activity against RBC (unknown origin) at 60 uM; format: ADME, cell-based, Erythrocyte; conditions: red blood cells (erythrocytes); read-out: Activity
[17] = Hemolytic activity against RBC (unknown origin) at 40 uM; format: ADME, cell-based, Erythrocyte; conditions: red blood cells (erythrocytes); read-out: Activity
[18] = Hemolytic activity against RBC (unknown origin) at 20 uM; format: ADME, cell-based, Erythrocyte; conditions: red blood cells (erythrocytes); read-out: Activity
[19] = Hemolytic activity against RBC (unknown origin) at 10 uM; format: ADME, cell-based, Erythrocyte; conditions: red blood cells (erythrocytes); read-out: Activity
[20] = Hemolytic activity against RBC (unknown origin) at 5 uM; format: ADME, cell-based, Erythrocyte; conditions: red blood cells (erythrocytes); read-out: Activity
[21] = Hemolytic activity against RBC (unknown origin) at 1 uM; format: ADME, cell-based, Erythrocyte; conditions: red blood cells (erythrocytes); read-out: Activity
M-HeLa = assay: Cytotoxicity against human M-HeLa cells; format: functional, cell-based
MCF7 = assay: Cytotoxicity against human MCF7 cells; format: functional, cell-based
HepG2 = assay: Cytotoxicity against human HepG2 cells; format: functional, cell-based
PANC-1 = assay: Cytotoxicity against human PANC1 cells; format: functional, cell-based
[22] = Cytotoxicity against human Chang cells; format: cell-based
[23] = Selectivity index, ratio of IC50 for human Chang cells to IC50 for human M-HeLa cells
[24] = Selectivity index, ratio of IC50 for human Chang cells to IC50 for human MCF7 cells
[25] = Selectivity index, ratio of IC50 for human Chang cells to IC50 for human HepG2 cells
[26] = Selectivity index, ratio of IC50 for human Chang cells to IC50 for human PANC1 cells

| SMILES | MIC (Staphylococcus aureus [1]) | MBC (Staphylococcus aureus [2]) | MIC (Staphylococcus aureus [3]) | MBC (Staphylococcus aureus [4]) | MIC (Staphylococcus aureus [5]) | MBC (Staphylococcus aureus [6]) | MIC (Bacillus cereus [7]) | MBC (Bacillus cereus [8]) | MIC [9] | MFC [10] | MIC (Candida albicans [11]) | MFC (Candida albicans [12]) | hemolysis at 480 µM [13] | hemolysis at 240 µM [14] | hemolysis at 120 µM [15] | hemolysis at 60 µM [16] | hemolysis at 40 µM [17] | hemolysis at 20 µM [18] | hemolysis at 10 µM [19] | IC50 [22] | further results |
| --- | --- | --- | --- | --- | --- | --- | --- | --- | --- | --- | --- | --- | --- | --- | --- | --- | --- | --- | --- | --- | --- |
| CC1(C)S[C@@H]2[C@H](NC(=O)[C@H](N)c3ccc(O)cc3)C(=O)N2[C@H]1C(=O)O [AMOXICILLIN] | 94.4 µM (≈ 34.5 µg/mL) | 94.4 µM (≈ 34.5 µg/mL) | 85.6 µM (≈ 31.3 µg/mL) | 85.6 µM (≈ 31.3 µg/mL) | – | – | – | – | – | – | – | – | – | – | – | – | – | – | – | – | – |
| O=C(O)c1cn(C2CC2)c2cc(N3CCNCC3)c(F)cc2c1=O [CIPROFLOXACIN] | – | – | – | – | 0.7 µM (≈ 0.232 µg/mL) | 1.5 µM (≈ 0.497 µg/mL) | 0.7 µM (≈ 0.232 µg/mL) | 1.5 µM (≈ 0.497 µg/mL) | – | – | – | – | – | – | – | – | – | – | – | – | – |
| CCCCCC[P+](Cc1ccccc1O)(c1ccccc1)c1ccccc1.[Cl-] | 75.6 µM | 302 µM | 37.8 µM | 151 µM | 18.9 µM | 37.8 µM | 37.8 µM | 152 µM | 606 µM | inactive | 606 µM | inactive | 4.8% | 2.5% | 0.4% | 0.3% | 0.2% | 0.2% | 0% | 65.3 µM | hemolysis at 5 µM [20]: 0%; hemolysis at 1 µM [21]: 0%; IC50 (M-HeLa): 50 µM; IC50 (MCF7): 86 µM; IC50 (HepG2; read-out: IC50): 83 µM; IC50 (PANC-1): 82 µM; Ratio IC50 [23]: 1.3; Ratio IC50 [24]: 0.76; Ratio IC50 [25]: 0.78; Ratio IC50 [26]: 0.79 |
| CCCCCCCCCCCCCC[P+](Cc1ccccc1O)(c1ccccc1)c1ccccc1.[Cl-] | 7.2 µM | 28.8 µM | 7.2 µM | 28.8 µM | 3.6 µM | 14.8 µM | 3.6 µM | 478 µM | 478 µM | inactive | 478 µM | inactive | 100% | 100% | 100% | 74% | 0.3% | 0% | 0% | 42.3 µM | hemolysis at 5 µM [20]: 0%; hemolysis at 1 µM [21]: 0%; IC50 (M-HeLa): 3.5 µM; IC50 (MCF7): 6.6 µM; IC50 (HepG2; read-out: IC50): 6.6 µM; IC50 (PANC-1): 25 µM; Ratio IC50 [23]: 12.1; Ratio IC50 [24]: 6.4; Ratio IC50 [25]: 6.4; Ratio IC50 [26]: 1.7 |
| C=CCCCC[P+](Cc1ccccc1O)(c1ccccc1)c1ccccc1 | inactive | inactive | inactive | inactive | 609 µM | inactive | inactive | inactive | inactive | inactive | inactive | inactive | – | – | – | – | – | – | – | – | – |
| CC(C)C[C@@H]1NC(=O)[C@H](CCCN)NC(=O)[C@H](C(C)C)NC(=O)[C@@H]2CCCN2C(=O)[C@@H](Cc2ccccc2)NC(=O)[C@H](CC(C)C)NC(=O)[C@H](CCCN)NC(=O)[C@H](C(C)C)NC(=O)[C@@H]2CCCN2C(=O)[C@@H](Cc2ccccc2)NC1=O (cyclo(L[dF]PV[Orn]L[dF]PV[Orn])) | – | – | – | – | – | – | – | – | – | – | – | – | 100% | 100% | 100% | 99% | 98% | 24% | 1.5% | – | hemolysis at 5 µM [20]: 0.5%; hemolysis at 1 µM [21]: 0% |
| CC/C(=C(\c1ccccc1)c1ccc(OCCN(C)C)cc1)c1ccccc1 [TAMOXIFEN] | – | – | – | – | – | – | – | – | – | – | – | – | – | – | – | – | – | – | – | 46.2 µM | IC50 (HepG2): 23.4 µM |
| CC1COc2c(N3CCN(C)CC3)c(F)cc3c(=O)c(C(=O)O)cn1c23 (configuration not stated) [OFLOXACIN] | – | – | – | – | 2.4 µM (≈ 0.867 µg/mL) | 2.4 µM (≈ 0.867 µg/mL) | 4.1 µM (≈ 1.48 µg/mL) | 8.5 µM (≈ 3.07 µg/mL) | – | – | – | – | – | – | – | – | – | – | – | – | – |
| CC(=O)N1CCN(c2ccc(OCC3COC(Cn4ccnc4)(c4ccc(Cl)cc4Cl)O3)cc2)CC1 (configuration not stated) [KETOCONAZOLE] | – | – | – | – | – | – | – | – | 7.3 µM (≈ 3.88 µg/mL) | 16.6 µM (≈ 8.82 µg/mL) | 7.3 µM (≈ 3.88 µg/mL) | 16.6 µM (≈ 8.82 µg/mL) | – | – | – | – | – | – | – | – | – |
| CCCCCCC[P+](Cc1ccccc1O)(c1ccccc1)c1ccccc1.[Cl-] | 36.6 µM | 146 µM | 73.2 µM | 73.2 µM | 18.3 µM | 18.3 µM | 36.6 µM | 146 µM | 586 µM | inactive | 586 µM | inactive | 3.6% | 1.9% | 0.4% | 0.3% | 0.3% | 0.3% | 0.2% | 41.6 µM | hemolysis at 5 µM [20]: 0%; hemolysis at 1 µM [21]: 0%; IC50 (M-HeLa): 5.5 µM; IC50 (MCF7): 32.8 µM; IC50 (HepG2; read-out: IC50): 26.3 µM; IC50 (PANC-1): 40 µM; Ratio IC50 [23]: 7.6; Ratio IC50 [24]: 1.3; Ratio IC50 [25]: 1.6; Ratio IC50 [26]: 1.04 |
| CCCCCCCCCCCCCCCC[P+](Cc1ccccc1O)(c1ccccc1)c1ccccc1.[Cl-] | 28.2 µM | inactive | 14.1 µM | 113 µM | 3.4 µM | 28.2 µM | 14.1 µM | 452 µM | 56.6 µM | inactive | 56.6 µM | inactive | 100% | 100% | 100% | 98% | 2.5% | 2.1% | 0.9% | 45.2 µM | hemolysis at 5 µM [20]: 0.3%; hemolysis at 1 µM [21]: 0.3%; IC50 (M-HeLa): 3.2 µM; IC50 (MCF7): 13.2 µM; IC50 (HepG2; read-out: IC50): 12.6 µM; IC50 (PANC-1): 25.7 µM; Ratio IC50 [23]: 14.1; Ratio IC50 [24]: 3.4; Ratio IC50 [25]: 3.6; Ratio IC50 [26]: 1.8 |
| CCCCCCCC[P+](Cc1ccccc1O)(c1ccccc1)c1ccccc1.[Cl-] | 35.4 µM | 142 µM | 17.7 µM | 35.4 µM | 8.8 µM | 8.8 µM | 17.7 µM | 17.7 µM | 284 µM | inactive | 284 µM | inactive | 8.5% | 4.8% | 2.3% | 0.6% | 0.4% | 0% | 0% | 46.3 µM | hemolysis at 5 µM [20]: 0%; hemolysis at 1 µM [21]: 0%; IC50 (M-HeLa): 3.7 µM; IC50 (MCF7): 12.5 µM; IC50 (HepG2; read-out: IC50): 25.7 µM; IC50 (PANC-1): 12.5 µM; Ratio IC50 [23]: 12.5; Ratio IC50 [24]: 3.7; Ratio IC50 [25]: 1.8; Ratio IC50 [26]: 3.7 |
| COc1cccc2c1C(=O)c1c(O)c3c(c(O)c1C2=O)C[C@@](O)(C(=O)CO)C[C@@H]3O[C@H]1C[C@H](N)[C@H](O)[C@H](C)O1 [DOXORUBICIN] | – | – | – | – | – | – | – | – | – | – | – | – | – | – | – | – | – | – | – | 3 µM | IC50 (HepG2; read-out: IC50): 3.3 µM; IC50 (PANC-1): 3.2 µM |
